Test results from patent US7741344B2, “Process for preparing purified S-BEL and R-BEL and compositions thereof” (Washington University in St. Louis, priority 2002, dated 2010).

Tests used:
α-chymotrypsin = molecular target: T1, α-chymotrypsin (Bos taurus, UniProt P00766); test: Inhibition of α-chymotrypsin by BEL; format: biochemical; conditions: 2 μM chymotrypsin, up to 5-fold molar excess of inhibitor, 5 min 22° C., then 1000-fold dilution with 100 mM hydrazine; FIG. 3
T1 construct: purchased Sigma
Procedure: Inhibition of α-Chymotrypsin by BEL—The kinetics of α-chymotrrpsin inactivation by (R)-, (S)-, and rac-BEL were performed similar to methods previously described (36). The concentration of α-chymotrypsin (MW=25,000) was determined using an A^1%=20 (1 cm pathlength) at 280 nm (37). Briefly, one milliliter of α-chymotrypsin (2 μM) was incubated with up to a 5-fold molar excess of (R)-,(S)-, or rac-BEL dissolved in acetonitrile or vehicle alone for 5 mm at 22° C. in 0.1 M sodium phosphate buffer, pH 7.2. […] Following incubation at 22° C. for 1 hr, chymotrypsin activity in each diluted sample was measured utilizing a SPECTRAmax GeminiXS microplate spectrofluorometer with N-succinyl-Ala-Ala-Pro-Phe-7-amidomethylcoumarin (50 μM) as substrate for 1 mm at 25° C. Excitation and emission wavelengths were 380 nm and 460 nm, respectively.
Chymotrypsin (2 μM) in 0.1 M sodium phosphate buffer, pH 7.2 was incubated with the indicated concentrations of racemic, (R)-, or (S)-BEL for 5 mm. This solution was then diluted 1000-fold in 0.1 M sodium phosphate buffer, pH 7.2 containing 100 mM hydrazine and incubated for 1 hr at 22° C. Chymotrypsin proteolytic activity was measured spectrofluorometrically using N-succinyl-Ala-Ala-Pro-Phe-7-amido-4-methylcoumarin (50 μM) as substrate.

[1] = tested on: purified recombinant iPLA2β; test: Assay of iPLA2β inhibition by BEL (radiolabeled phospholipid substrate); format: biochemical
Procedure: Recombinant iPLA2 Enzymes—Recombinant iPLA2β was expressed and purified from Sf9 cells as previously described (35).
Assay of iPLA2β and iPLA2γ Inhibition by BEL—Purified recombinant iPLA2β or Sf9 cell membranes containing recombinant iPLA2γ were incubated with (R) BEL, (S) BEL, racemic BEL, or ethanol vehicle for 3 mm at 22° C. in the presence of 100 mM Tris-HCl (pH 7.0) and 4 mM EGTA (for iPLA2β) or 100 mM Tris-acetate (pH 8.0) and 4 mM EGTA (for iPLA2γ). The concentration of BEL used for each test ranged from 0 to 16 μM. L-α-1-palmitoyl-2-[1^14C]-arachidonyl-phosphatidylcholine (5 μM final concentration) or L-α-1-palmitoyl-2-[1-^14C]-oleoyl-phosphatidylcholine (5 μM final concentration) in ethanol was then added to each sample and incubated at 37° C. for 2 min. Reactions were terminated by extraction of radiolabeled products into butanol, and reactants and products were separated by thin layer chromatography using Whatman LK6D 60 Å Silica Gel plates with petroleum ether/ethyl ether/acetic acid (70:30:1) as the mobile phase. Regions corresponding to the migration of a fatty acid standard visualized by iodine staining were scraped into vials and radioactivity was quantified by scintillation spectrometry.
Panel A—Purified recombinant iPLA2β (1 μg/ml) in 100 mM Tris-HCl, pH 7.3 containing 1 mM EGTA was preincubated at 22° C. for 3 mm in the presence of the indicated concentrations of (R)-, (S)-, or rac-BEL or ethanol vehicle alone (1% final concentration). Radiolabeled substrate (L-α-1-palmitoyl-2-[1-^14C]-arachidonyl-phosphatidylcholine, 5 μM final concentration) was then added to each reaction and incubated at 37° C. for 2 min. Reactions were terminated by extraction of remaining substrate and products into butanol, separation by TLC, and quantification of released radiolabeled fatty acid by scintillation spectrometry as described in Experimental Procedures.

A-10 smooth muscle cells = test: AVP-induced [3H]-arachidonic acid liberation from A-10 cells; format: cell-based, rat; conditions: for restoration of arachidonic acid release in (S)-BEL treated A-10 cells: 5 μM (S)-BEL pretreatment, then 1 μM AVP with PMA (1 μM) or DOG (10 μM), FIG. 7
Procedure: Quantification of [^3H]-Arachidonic Acid Liberation from A-10 Phospholipids—Rat aortic smooth muscle A-10 cells, cultured in 60 mm dishes (2.5×10^5 cells/dish), were radiolabeled with 0.5 μCi [^3H]-arachidonic acid per dish as previously described (29). Cells were washed once with DMEM containing 0.25% fatty acid free bovine serum albumin followed by two washes with DMEM alone. Cells were then incubated with the indicated concentrations of (R)-, (S)-, rac-BEL, or ethanol vehicle (0.1% final concentration) in DMEM for 20 min. This media was removed and the cells were then incubated with DMEM containing 10% heat-inactivated fetal bovine serum in the absence or presence of 1 μM AVP. In some tests, PMA (1 μM) or DOG (10 μM) was added to the medium containing AVP. After 5 mm, 1 ml of this medium was removed, lipids were extracted into 2 ml of chloroform/methanol/acetic acid (25:24:1 v/v) (38), and the remaining cells were scraped into 1 ml of deionized water prior to lipid extraction as described above. The chloroform layer was evaporated under nitrogen and the extracted lipids were separated by thin layer chromatography (petroleum ether/ethyl ether/glacial acetic acid 70:30:1). Regions containing fatty acids and phospholipids were scraped into vials and radioactivity was quantified by liquid scintillation spectrometry.
A-10 cells (2.5×10^5 cells/dish) were radiolabeled with [^3H]-arachidonic acid (0.5 μCi/dish) for 20 hrs. After washing to remove unincorporated [^3H]-arachidonic acid, cells were then incubated with either 1 μM or 5 μM (R)-BEL, (S)-BEL, rac-BEL, or ethanol vehicle (0.1%) in DMEM for 20 mm. This media was removed and the cells were then incubated with 3 ml of DMEM containing 10% heat-inactivated fetal bovine serum with or without 1 μM AVP. After 5 min, 1 ml of this medium was removed and lipids were extracted into 2 ml of chloroform/methanol/acetic acid (25:24:1). The remaining cells were scraped into 1 ml of deionized water and total lipids were extracted as described above. The chloroform layer was evaporated under nitrogen and the extracted lipids were separated by TLC. Regions containing fatty acids and phospholipids were scraped into vials and radioactivity was quantified by liquid scintillation spectrometry. Results are representative of four separate tests.
A-10 cells were radiolabeled with [^3H]-arachidonic acid, washed, and pre-incubated with 5 μM (S)-BEL or ethanol vehicle alone for 15 min as described in FIG. 5. DMEM media containing 10% heat-inactivated fetal bovine serum with or without 1 μM AVP was then added to the cells. After 5 min at 37° C., [^3H]-arachidonic acid released into the media and remaining within the cells (free and incorporated into phospholipids) was extracted into chloroform, separated by TLC, and quantified by liquid scintillation spectrometry as described in “Experimental Procedures”. Results are representative of three separate tests.

[2] = tested on: MAPK (ERK2) phosphorylation; test: AVP-induced MAPK phosphorylation in A-10 cells (Western); format: cell-based, rat; conditions: 5 μM, 15 min, 1 μM AVP; FIG. 9
PKCδ = test: AVP-induced PKC translocation in A-10 cells (Western), PKCδ; format: cell-based, rat; conditions: 5 μM pretreatment 15 min, 1 μM AVP; FIG. 8
Procedure: (§1) Determination of PKC Translocation—Confluent A-10 cells in 10 cm dishes were washed twice with DMEM without serum, followed by incubation with either 5 μM (S)-BEL or ethanol vehicle in DMEM for 15 min at 37° C. This media was then removed and DMEM with or without 1 μM AVP was incubated with the cells for 5 min. After washing with ice-cold PBS, the cells were collected by scraping into 20 mM Tris-HCl, pH 7.4 containing 0.33 M sucrose, 5 mM EDTA, 0.5 mM 4(2-aminoethyl)benzenesulfonylfluoride, and 5 μg/ml leupeptin and were lysed by three cycles of flash freezing with liquid nitrogen and thawing. Each sample was then further homogenized utilizing a teflon homogenizer before isolating the low speed pellet (1,000×g), membrane (100,000×g pellet), and cytosol (100,000×g supernatant) fractions. The protein concentrations of the fractions were determined utilizing the bicinchoninic acid (BCA) assay (Pierce) with BSA as a standard. Samples were electrophoresed and subjected to ECL Western analysis utilizing rabbit polyclonal antibodies against PKCα and PKCε as described above for MAPK phosphorylation. For blots incubated with mouse monoclonal antibodies against PKCδ and PKCι., an anti-mouse IgG (Fab specific)-peroxidase conjugate was utilized in place of the protein A-peroxidase conjugate. […]

PKCε = test: AVP-induced PKC translocation in A-10 cells (Western), PKCε; format: cell-based, rat; conditions: 5 μM pretreatment 15 min, 1 μM AVP; FIG. 8
Procedure: as §1

Structure (SMILES) | inhibition of chymotrypsin (α-chymotrypsin) | selectivity for inhibition of iPLA2β [1] [fold] | inhibition of iPLA2β, fold more potent than (R)-BEL ([1]; 3 min preincubation, FIG. 4A) [fold] | selectivity for iPLA2β in comparison to iPLA2γ ([1]; in words) | IC50 (A-10 smooth muscle cells; 1 μM AVP, read-out: IC50, AVP-induced liberation of AA from A-10 cells) [µM] | inhibition of AVP-induced AA release (A-10 smooth muscle cells; 1 μM inhibitor, 20 min pretreatment, 1 μM AVP, FIG. 5) [%] | AVP-induced AA release (in words) (A-10 smooth muscle cells; 5 μM inhibitor, 1 μM AVP, FIG. 5) | AVP-induced phosphorylation of ERK2 [2] | AVP-induced translocation of PKCδ to the membrane fraction (PKCδ) | AVP-induced translocation of PKCε to the membrane fraction (PKCε) | restoration of arachidonic acid release in (S)-BEL treated A-10 cells (A-10 smooth muscle cells)
O=C1O/C(=C/Br)CC[C@H]1c1cccc2ccccc12 [(S)-BEL, (S)(E)-6-(bromomethylene)-3-(1-naphthalenyl)-2H-tetrahydropyran-2-one] | considerably less potent | 10 | 10 | approximately an order of magnitude more selective | ~1 | 50 | completely attenuated | not effected | does not effect | does not effect | 
CCCCCCCC(=O)OC[C@H](CO)OC(=O)CCCCCCC [DOG, 1,2-Dioctanoyl-sn-glycerol] |  |  |  |  |  |  |  |  |  |  | Neither PMA or DOG could restore
CCCCCCCCCCCCCC(=O)O[C@@H]1[C@@H](C)[C@@]2(O)[C@@H](C=C(CO)C[C@]3(O)C(=O)C(C)=C[C@@H]23)[C@@H]2C(C)(C)[C@]12OC(C)=O [PMA, Phorbol-12-myristate-13-acetate] |  |  |  |  |  |  |  |  |  |  | Neither PMA or DOG could restore
